Counter-ions that a name gives are not always drawn.
Tests used:
[1] = system: HT 29; assay: Growth inhibition test (MTT) for cytotoxic properties; format: cell-based, human; settings: Table 1a, glycoconjugates of batracyline
Protocol: (§1) Growth Inhibition Test for Determination of the Cytotoxic Properties of Glycoconjugates of Batracyline and of Quinolone-a
(§2) The human colon cell lines SW 480 and HT 29 (ATCC no. CCL 228 and HBT-38) and the mouse melanoma cell line B 16 F 10 were cultured in Roux dishes in RPMI 1640 medium with addition of 10% FCS. The cultures were then trypsinized and taken up in RPMI plus 10% FCS to a cell count of 50,000 cells/ml. 100 μl of cell suspension/well were introduced into a 96 microwell plate and incubated for 1 day at 37° C. in a CO2 incubating cabinet. A further 100 μl of RPMI medium and 1 μl of dimethyl sulphoxide with the test substances were then added. The growth was checked after day 3 and day 6. 40 μl of MTT solution (3-(4,5-dimethylthiazol-2-yl)-2,5-diphenyltetrazoline bromide) with an initial concentration of 5 mg/ml of H2 O were added to each microwave. The plate was incubated for 5 hours in a CO2 incubating cabinet at 37° C. The medium was then sucked off and 100 μl of i-propanol/well were added. After shaking for 30 minutes with 100 μl of H2 O, the extinction was measured at 540 nm with a Titertek Multiskan MCC/340 (Flow).
(§3) The cytotoxic action of the glycoconjugates of batracyline described is shown in Table 1a as the IC50 value in each case for the SW 480 and HT 29 cell lines.

[2] = system: SW 480; assay: as above; format: cell-based, human; settings: Table 1a, glycoconjugates of batracyline
Protocol: as §1, §2, §3

Row | Compound | IC50 [1] | IC50 [2]
1 | COC1C(O)C(C)OC(Oc2ccc(NC(=S)Nc3ccc4c(c3)Cn3c-4nc4ccccc4c3=O)cc2)C1O [Example 7.7, N-[O-(3-O-Methyl-β-L-fucosyl)-4-hydroxy-phenylamino-thiocarbonyl]-batr acyline] | > 250 µM | 100 µM
2 | N-{N^α -[-(3-O-Carboxymethyl-β-D-galactopyranosyl)-4-hydroxy-phenylaminothio carbonyl]-N^ε -[O-(3,4-di-O-methyl-β-D-galactopyranosyl)-4-hydroxy-phenylamino-thio carbonyl]-lysyl-D-alanyl}-batracyline, sodium salt [Example 5.13] | 40 µM | 20 µM
3 | N-{N^α,N^ε -Bis-[O-(3-O-carboxymethyl-β-L-fucosyl)-4-hydroxy-phenylamino-thiocar bonyl]-lysyl}-batracyline [Example 6.25] | 40 µM | 50 µM
4 | N-{N^α,N^ε -Bis-[O-(3-O-n-propyl-β-L-fucosyl)-4-hydroxy-phenylamino-thiocarbonyl ]lysyl-D-alanyl}-batracyline [Example 6.7] | > 250 µM | 60 µM
5 | N-{N^ε -O-(2-O-Methyl-β-L-fucosyl)-4-hydroxy-phenylamino-thiocarbonyl]-lysyl -D-alanyl}-batracyline [Example 3.2] | 75 µM | 100 µM
6 | N-{N^α -[4-Hydroxyphenylamino-thiocarbonyl]-N^ε -[O-(4-O-methyl-β-L-fucosyl)-4-hydroxyphenylamino-thiocarbonyl]-lysyl -D-alanyl}-batracyline [Example 5.6] |  | > 250 µM
7 | CC(NC(=O)C(CCCCNC(=S)Nc1ccc(OC2OC(CO)C(O)C(OCC(N)=O)C2O)cc1)NC(=S)Nc1ccc(OC2OC(CO)C(O)C(OCC(N)=O)C2O)cc1)C(=O)Nc1ccc2nc3n(c(=O)c2c1)Cc1ccccc1-3 [Example 6.82, N-{N^α,N^ε -Bis-[O-(3-O-carbamoylmethyl-β-D-galactopyranosyl)-4-hydroxy-phenylamino-thiocarbonyl]-lysyl-D-alanyl}-batracyline] |  | 125 µM
8 | N-{N^α,N^ε -Bis-[O-(3-O-carboxymethyl-β-D-galactopyranosyl)-4-hydroxy-phenylamin o-thiocarbonyl]-lysyl-seryl}-batracyline, di-sodium salt [Example 6.34] |  | 50 µM
9 | N-{N^ε -[-(3-O-Carbamoylmethyl-β-D-galactopyranosyl)-4-hydroxy-phenylamino-t hiocarbonyl]-lysyl-D-alanyl}-batracyline, trifluoroacetate [Example 3.19] |  | 75 µM
10 | CO[C@H]1[C@@H](O)[C@H](O)[C@@H](Oc2ccc(Nc3nc(NCCO)nc(NCCCC[C@H](N)C(=O)N[C@@H](C)C(=O)Nc4ccc5c(c4)CN4C(=O)c6ccccc6C4=N5)n3)cc2)O[C@H]1C [Example 8.12, N-{N^ε -[4-Hydroxyethylamino-2-[O-(4-O-methyl-β-L-fucosyl)-4-hydroxy-phenylamino]-triazin-6-yl]-lysyl-alanyl}-batracyline, trifluoroacetate] |  | 30 µM
11 | N-{N^ε -[O-(3-O-Carboxymethyl-β-D-galactopyranosyl)-4-hydroxy-phenylamino-th iocarbonyl]-lysyl-D-alanyl}-batracyline, trifluoroacetate [Example 3.18] |  | 15 µM
12 | N-{N^α,N^ε -Bis-[O-(3-O-carboxymethyl-β-L-fucosyl)-4-hydroxy-phenylamino-thiocar bonyl]-lysyl-diaminopropionyl}-batracyline, di-sodium salt [Example 6.21] |  | 150 µM
13 | CO[C@H]1[C@@H](O)[C@H](O)[C@@H](Oc2ccc(NC(=S)NCCCC[C@H](N)C(=O)N[C@H](C)C(=O)Nc3ccc4c(c3)Cn3c-4nc4ccccc4c3=O)cc2)O[C@H]1C [Example 3.11, N-{N^ε -[O-(4-O-Methyl-β-L-fucosyl)-4-hydroxy-phenylamino-thiocarbonyl]-lysyl-D-alanyl}-batracyline, acetate] |  | 85 µM
14 | C[C@@H]1O[C@H](Oc2ccc(NC(=S)NCCCC[C@H](N)C(=O)N[C@H](C)C(=O)Nc3ccc4c(c3)CN3C(=O)c5ccccc5C3=N4)cc2)[C@@H](O)C[C@@H]1O [Example 3.7, N-{N^ε -[O-(3-Deoxy-β-L-fucosyl)-4-hydroxy-phenylamino-thiocarbonyl]-lysyl-D -alanyl}-batracyline, trifluoroacetate] |  | 55 µM
15 | N-{N^ε [O-(3-O-Methyl-α-D-mannopyranosyl)-4-hydroxy-phenylamino-thiocarbony l]-lysyl-D-alanyl}-batracyline, trifluoroacetate [Example 3.26] |  | 50 µM
16 | CO[C@H]1[C@H](O)[C@@H](Oc2ccc(Nc3nc(NCCO)nc(NCCCC[C@H](N)C(=O)N[C@H](C)C(=O)Nc4ccc5c(=O)n6c(nc5c4)-c4ccccc4C6)n3)cc2)O[C@@H](C)[C@H]1O [Example 8.10, N-{N^ε -[4-Hydroxyethylamino-2-[O-(3-O-methyl-β-L-fucosyl)-4-hydroxy-phenylamino]-triazin-6-yl]-lysyl-D-alanyl}-batracyline, trifluoroacetate] |  | 70 µM

Row | Compound | IC50 [1] | IC50 [2]
17 | N-{N^α,N^ε -Bis-[O-(3-O-methyl-β-L-fucosyl)-4-hydroxy-phenylamino-thiocarbonyl]- lysyl-diaminopropionyl}-batracyline [Example 6.20] |  | 80 µM
18 | N-{N^ε -[4-Hydroxyethylamino-2-[O-(2-O-methyl-β-L-fucosyl)-4-hydroxy-phenyla mino]-triazin-6-yl]-lysyl-alanyl}-batracyline, trifluoroacetate [Example 8.11] |  | 45 µM
19 | COC1C(Oc2ccc(NC(=S)NCCCCC(N)C(=O)NC(C)C(=O)Nc3ccc4nc5n(c(=O)c4c3)Cc3ccccc3-5)cc2)OC(CO)C(O)C1OC [Example 3.27, N-{N^ε -[O-(2,3-Di-O-methyl-α-D-mannopyranosyl)-4-hydroxy-phenylamino-thiocarbonyl]-lysyl-D-alanyl}-batracyline, trifluoroacetate] |  | 110 µM
20 | N-{N-[O-(β-L-Fucosyl)-4-hydroxy-phenylamino-thiocarbonyl]-glutamyl-D-a lanyl}-batracyline [Example 7.5] |  | 80 µM
21 | N-{N^α,N^ε -Bis-[O-(3,4-di-O-methyl-β-D-galactopyranosyl)-4-hydroxy-phenylamino- thiocarbonyl]-lysyl-alanyl}-batracyline [Example 6.85] |  | 22 µM
22 | N-{N^ε -[O-(3-O-Methoxycarbonylmethyl-α-D-mannopyranosyl)-4-hydroxy-phenyla mino-thiocarbonyl]-lysyl-D-alanyl}-batracyline, trifluoroacetate [Example 3.28] |  | 60 µM
23 | N-{N^ε -[O-(3-O-(N-Propyl-carbamoylmethyl)-β-D-galactopyranosyl)-4-hydroxy-p henylamino-thiocarbonyl]-lysyl-D-alanyl}-batracyline, trifluoroacetate [Example 3.21] |  | 90 µM
24 | N-{N^α,N^ε -Bis-[O-(3-O-carbamoylmethyl-β-D-galactopyranosyl)-4-hydroxy-phenylam ino-thiocarbonyl]-lysyl-seryl}-batracyline [Example 6.35] |  | 20 µM
25 | N-{N^ε -[O-(3-O-Carboxymethyl-α-D-mannopyranosyl)-4-hydroxy-phenylamino-thi ocarbonyl]-lysyl-D-alanyl}-batracyline, trifluoroacetate [Example 3.29] |  | 110 µM
26 | CNC(=O)COC1C(O)C(CO)OC(Oc2ccc(NC(=S)NCCCCC(N)C(=O)NC(C)C(=O)Nc3ccc4nc5n(c(=O)c4c3)Cc3ccccc3-5)cc2)C1O [Example 3.20, N-{N^ε -[O-(3-O-(N-Methyl-carbamoylmethyl)-β-D-galactopyranosyl)-4-hydroxy-phenylamino-thiocarbonyl]-lysyl-D-alanyl}-batracyline, trifluoroacetate] |  | 100 µM
27 | N-{N^ε-[O-( 3,4-Dideoxy-β-D-galactopyranosyl)-4-hydroxy-phenylamino-thiocarbonyl] -lysyl-D-alanyl}-batracyline, trifluoroacetate [Example 3.23] |  | 50 µM
28 | N-{N^ε -[O-(3-O-Carbamoylmethyl-α-D-mannopyranosyl)-4-hydroxy-phenylamino-t hiocarbonyl]-lysyl-D-alanyl}-batracyline, trifluoroacetate [Example 3.30] |  | > 250 µM
29 | N-{N^α,N^ε -Bis-[O-(3,4-O-dideoxy-β-D-galactopyranosyl)-4-hydroxy-phenylamino-th iocarbonyl]-lysyl-D-alanyl}-batracyline [Example 6.83] |  | 90 µM
30 | N-{N^ε -[O-(3-O-Methyl-β-D-galactopyranosyl)-4-hydroxy-phenylamino-thiocarbo nyl]-lysyl-D-alanyl}-batracyline, trifluoroacetate [Example 3.14] |  | 40 µM
31 | CC(=O)OCC1OC(Oc2ccc(NC(=S)NCCCCC(N)C(=O)NC(C)C(=O)Nc3ccc4nc5n(c(=O)c4c3)Cc3ccccc3-5)cc2)C(O)C(O)C1O [Example 3.24, N-{N^ε -[O-(6-O-Acetyl-β-D-galactopyranosyl)-4-hydroxy-phenylamino-thiocarbonyl]-lysyl-D-alanyl}-batracyline, trifluoroacetate] |  | 95 µM

From patent US6271342A, “Sugar-modified cytostatics” (Bayer Aktiengesellschaft, priority 1995, dated 2001)
